Experimental data published in paper PMC9927457 (Microbiology Spectrum, 2023).
In brackets after ≈: the same amount, converted by molar mass.

Key:
[1] = tested on: M. tuberculosis wild-type strain; experiment: MIC against wild-type M. tuberculosis; assay type: cell-based, Mycobacterium tuberculosis; conditions: concentration required to inhibit growth by 90%, 5 days culture; for MIC: Mycobacterium tuberculosis, 120 h, read-out: MIC Wild type
[2] = tested on: M. tuberculosis strain under expressing LepB (LepB-UE); experiment: microbe, parasite or virus in culture; assay type: cell-based, Mycobacterium tuberculosis; conditions: for MIC: Mycobacterium tuberculosis, 120 h
[3] = tested on: HepG2 cells; experiment: HepG2 cytotoxicity; assay type: cell-based, human; conditions: 3 days exposure, CellTiter-Glo
Experimental: HepG2 cells were used to measure eukaryotic cytotoxicity. Viability of HepG2 was measured using CellTiter-Glo reagent (Promega) after 3 days of exposure to compounds. […] Staurosporine controls (maximum inhibition) and a staurosporine dose response were included on every plate.

[4] = in vitro; conditions: human; for Papp A→B at 2 h, 10 µM / Papp B→A at 2 h, 10 µM / efflux ratio at 2 h, 10 µM: Caco-2
Experimental: (§1) Permeability was measured across Caco-2 cells cultured in a Millipore 96-well Caco-2 plate. For apical to basolateral (A→B) permeability, 10 μM compound was added to the apical (A) side and amount of permeation was determined on the basolateral (B) side; for basolateral to apical (B→A) permeability, the compound was added to the B side and the amount of permeation was determine on the A side. Time points were taken at 2 h.
(§2) Table S2. Permeability. Permeability was measured using Caco-2 cells after 1 and 2 hours incubation with compound. (A→B) is Apical to Basolateral; (B→A) is Basolateral to Apical. Data is expressed as permeability (10-6 cm s-1). dQ/dt is rate of permeation, C0 is initial concentration […]
(§3) Article Duration direction value replicate replicate mean recovery

[5] = tested on: Caco-2 cells; experiment: Caco-2 permeability; conditions: for recovery: human, 10 μM
Experimental: as §1, §2, §3

[6] = Microsomal metabolic stability; conditions: human, pH 7.4; for half-life at 1 µM: liver microsomes; for microsomal CLint at 1 µM: microsomes
Experimental: as §1
Table S3. Metabolic stability. Metabolic stability was measured using human liver microsomes. […]

[7] = biological target: SPase activity in M. tuberculosis H37Rv cell membrane fractions (Mycobacterium tuberculosis, UniProt P9WKA1); experiment: Inhibition of secretion (SPase activity) in membrane fractions; assay type: biochemical; conditions: fluorogenic peptide substrate 2 μM; 4 h, 37 °C
[8] = biological target: T1, CYP2B6 (Homo sapiens, UniProt P20813); experiment: Cytochrome P450 inhibition
T1 sequence (P20813 1-491): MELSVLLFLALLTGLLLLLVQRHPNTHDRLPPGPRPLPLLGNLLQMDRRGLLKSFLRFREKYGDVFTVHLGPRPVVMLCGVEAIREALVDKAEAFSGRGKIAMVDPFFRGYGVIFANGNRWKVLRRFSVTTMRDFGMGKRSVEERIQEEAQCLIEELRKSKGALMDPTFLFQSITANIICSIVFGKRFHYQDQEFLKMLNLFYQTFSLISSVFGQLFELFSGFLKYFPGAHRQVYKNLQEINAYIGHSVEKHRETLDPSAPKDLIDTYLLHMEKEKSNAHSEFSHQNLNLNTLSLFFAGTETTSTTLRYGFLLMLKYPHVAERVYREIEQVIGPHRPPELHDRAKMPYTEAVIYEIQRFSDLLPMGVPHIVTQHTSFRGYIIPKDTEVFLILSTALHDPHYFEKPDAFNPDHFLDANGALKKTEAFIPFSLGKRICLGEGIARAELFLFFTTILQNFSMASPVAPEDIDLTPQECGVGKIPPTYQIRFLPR
Experimental: (§4) Table S4. Inhibition of cytochrome P450s.
(§5) Compounds were tested for inhibition of P450s using the enzyme substrate pairs and conditions noted. IC50s (µM) were calculated. Control P450 inhibitors were included for each isoform.
(§6) For each compound, the analytical method was developed as follows. Analyte signal was optimized for each compound by ESI positive or negative ionization mode. An MS2 scan or an SIM scan was used to optimize fragmenter voltage and a product ion analysis was used to identify the best fragment for analysis. The collision energy was optimized using a product ion or MRM scan. An ionization ranking was assigned indicating the compound’s ease of ionization. Samples […]
(§7) 1200 HPLC and a CTC PAL chilled autosampler, all controlled by MassHunter software (Agilent).
(§8) After separation on a C18 reverse phase HPLC column (Agilent Zorbax StableBond 3.5µm, 2.1 x 30 mm) using an acetonitrile -water gradient system, peaks were analyzed by mass spectrometry (MS) using ESI ionization in MRM mode.
(§9) (1 picture or pasted object on this page, not shown here)
(§10) Serial dilutions of a 10 mM stock solution were prepared in acetonitrile:DMSO (9:1). The final DMSO concentration was < 0.2%. Compounds were incubated with human liver microsomes in the presence of 2 mM NADPH in 100 mM potassium phosphate (pH 7.4) containing 5 mM magnesium chloride and a probe substrate, in a 200 µl assay final volume in duplicate. The probe substrate concentrations including bupropion (CYP2B6), amodiaquine (CYP2C8), tolbutamide (CYP2C9), mephenytoin (CYP2C19), dextromethorphan (CYP2D6) and midazolam/testosterone […]
(§11) After incubation at 37 °C, reactions were terminated by addition of methanol containing internal standard (propranolol) for analytical quantification. The quenched samples were kept on ice for 10 min and centrifuged at 4 °C for 10 min. The supernatant was removed and the probe substrate metabolite was analyzed by LC-MS/MS (Agilent Technologies Triple Quad LC/MS). A decrease in the formation of the metabolite compared to vehicle control

[9] = biological target: CYP2C19 (Homo sapiens, UniProt P33261); experiment: biochemical
Experimental: as §4, §5, §6, §7, §8, §9, §10, §11

[10] = biological target: T2, CYP2C8 (Homo sapiens, UniProt P10632); experiment: biochemical
T2 sequence (P10632 1-490): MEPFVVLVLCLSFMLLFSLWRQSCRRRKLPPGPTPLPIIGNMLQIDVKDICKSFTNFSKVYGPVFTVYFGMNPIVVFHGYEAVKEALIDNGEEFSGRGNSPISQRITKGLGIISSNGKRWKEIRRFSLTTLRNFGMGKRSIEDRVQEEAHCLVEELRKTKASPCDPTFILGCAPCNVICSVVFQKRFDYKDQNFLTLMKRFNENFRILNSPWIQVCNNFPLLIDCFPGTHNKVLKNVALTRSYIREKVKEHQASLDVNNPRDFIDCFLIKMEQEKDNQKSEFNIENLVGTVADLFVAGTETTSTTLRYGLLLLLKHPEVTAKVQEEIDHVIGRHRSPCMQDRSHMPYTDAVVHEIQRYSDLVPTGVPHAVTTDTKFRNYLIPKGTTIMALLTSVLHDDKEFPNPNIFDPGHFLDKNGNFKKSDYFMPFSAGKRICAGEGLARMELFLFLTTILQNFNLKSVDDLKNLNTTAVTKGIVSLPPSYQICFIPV
Experimental: as §4, §5, §6, §7, §8, §9, §10, §11

[11] = biological target: CYP2C9 (Homo sapiens, UniProt P11712); experiment: biochemical
Experimental: as §4
(§12) Compounds were tested for inhibition of P450s using the enzyme substrate pairs and conditions noted. IC50s (µM) were calculated. Control P450 inhibitors were included for each isoform. […]
as §10, §11

[12] = biological target: CYP2D6 (Homo sapiens, UniProt P10635); experiment: biochemical
Experimental: as §4, §12, §7, §8, §10, §11

[13] = biological target: CYP3A4 (Homo sapiens, UniProt P08684); experiment: Cytochrome P450 inhibition; assay type: in vitro ADME; conditions: liver microsomes
Experimental: as §4, §5, §6, §7, §8, §9, §10, §11

[14] = Plasma protein binding (Rapid Equilibrium Dialysis); assay type: in vitro ADME, human; conditions: human; for fraction unbound at 4 h, 5 µM: plasma
Experimental: Molecule fraction fraction Post-Assay
Table S5. Plasma protein binding
Protein binding was measured in human plasma using Rapid Equilibrium Dialysis (RED) devices (Pierce) according to the manufacturers’ instructions; 5 µM compounds in plasma were dialysed against PBS for 4 h at 37C. Compounds were detected by LC-MS/MS in plasma and PBS

[15] = tested on: RAW 264.7 macrophages; experiment: Cytotoxicity against infected macrophages; assay type: cell-based, murine; conditions: Mus musculus; infected RAW264:7 cells, 72 h; read-out: IC50 Macrophage
Experimental: (§13) Murine RAW 264.7 macrophages (ATCC TIB-71) were infected with M. tuberculosis DsRed (DREAM8) ([29]) as described at a multiplicity of infection of 1 for 24 h, washed, harvested, and dispensed into 384-well plates ([30]). Infected macrophages were exposed to compounds for 72 h; cell nuclei were stained with SYBR green I. Plates were imaged with an ImageXpress Micro High Content Screening System (Molecular Devices) using a ×4 objective and FITC and Texas Red channels. MetaXpress was used to determine the integrated intensity of bacteria or macrophages. […] Isoniazid and staurosporine controls (maximum inhibition) and dose responses were included on every plate.

[16] = tested on: nonreplicating M. tuberculosis; experiment: Kill kinetics, nonreplicating (nutrient starved) bacteria; assay type: cell-based, Mycobacterium tuberculosis; conditions: nutrient starvation, PBS-tyloxapol
[17] = tested on: replicating M. tuberculosis; experiment: Kill kinetics, replicating bacteria; conditions: aerobic growth
[18] = tested on: intracellular M. tuberculosis (MTB) in RAW 264.7 macrophages; experiment: Activity against intracellular M. tuberculosis in macrophages (high-content microscopy); assay type: cell-based; conditions: Mycobacterium tuberculosis, RAW264.7, 72 h, intracellular M. tuberculosis in RAW 264.7 macrophages
Experimental: as §13

[19] = Mean plasma fraction Unbound Fuplasma

CYP2D6, sequence (P10635 whole entry): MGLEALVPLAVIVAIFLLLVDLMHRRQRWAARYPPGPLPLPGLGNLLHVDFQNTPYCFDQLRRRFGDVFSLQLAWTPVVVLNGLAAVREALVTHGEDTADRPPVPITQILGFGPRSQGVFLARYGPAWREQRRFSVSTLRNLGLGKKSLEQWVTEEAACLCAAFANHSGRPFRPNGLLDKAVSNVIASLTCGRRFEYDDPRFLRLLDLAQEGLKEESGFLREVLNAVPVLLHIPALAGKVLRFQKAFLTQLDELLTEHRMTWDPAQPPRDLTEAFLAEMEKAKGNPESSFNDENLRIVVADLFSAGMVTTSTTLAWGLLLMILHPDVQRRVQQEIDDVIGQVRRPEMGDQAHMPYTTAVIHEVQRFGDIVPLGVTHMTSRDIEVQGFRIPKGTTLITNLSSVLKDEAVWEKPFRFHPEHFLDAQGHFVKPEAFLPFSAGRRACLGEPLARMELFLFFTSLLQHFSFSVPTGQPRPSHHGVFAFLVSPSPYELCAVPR
CYP3A4, sequence (P08684 2-503): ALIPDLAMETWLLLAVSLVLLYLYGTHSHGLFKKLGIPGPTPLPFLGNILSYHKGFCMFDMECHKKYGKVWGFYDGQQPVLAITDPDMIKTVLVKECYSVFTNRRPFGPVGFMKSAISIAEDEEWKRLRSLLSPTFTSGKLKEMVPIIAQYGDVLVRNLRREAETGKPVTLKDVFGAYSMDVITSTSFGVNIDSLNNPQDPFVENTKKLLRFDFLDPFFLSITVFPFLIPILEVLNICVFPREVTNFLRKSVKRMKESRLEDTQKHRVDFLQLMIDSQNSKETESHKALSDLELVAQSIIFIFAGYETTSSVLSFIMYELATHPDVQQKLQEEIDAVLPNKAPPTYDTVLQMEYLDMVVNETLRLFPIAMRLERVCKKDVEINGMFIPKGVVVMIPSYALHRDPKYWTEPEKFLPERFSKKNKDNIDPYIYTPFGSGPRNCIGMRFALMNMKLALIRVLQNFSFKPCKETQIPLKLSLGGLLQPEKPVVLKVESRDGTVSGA
CYP2C9, sequence (P11712 whole entry): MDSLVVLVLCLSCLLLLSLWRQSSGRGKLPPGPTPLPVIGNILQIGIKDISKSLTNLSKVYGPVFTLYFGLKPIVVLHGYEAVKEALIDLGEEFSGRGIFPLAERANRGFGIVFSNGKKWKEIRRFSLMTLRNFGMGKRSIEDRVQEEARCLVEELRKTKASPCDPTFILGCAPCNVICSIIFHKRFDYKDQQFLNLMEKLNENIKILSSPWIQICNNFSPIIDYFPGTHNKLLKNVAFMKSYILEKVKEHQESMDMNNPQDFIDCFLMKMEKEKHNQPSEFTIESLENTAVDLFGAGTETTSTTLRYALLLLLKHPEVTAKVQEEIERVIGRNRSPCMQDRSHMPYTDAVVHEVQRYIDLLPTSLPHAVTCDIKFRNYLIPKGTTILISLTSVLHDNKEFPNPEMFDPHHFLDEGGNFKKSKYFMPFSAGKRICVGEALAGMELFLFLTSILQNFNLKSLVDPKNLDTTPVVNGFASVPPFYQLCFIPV
CYP2C19, sequence (P33261 whole entry): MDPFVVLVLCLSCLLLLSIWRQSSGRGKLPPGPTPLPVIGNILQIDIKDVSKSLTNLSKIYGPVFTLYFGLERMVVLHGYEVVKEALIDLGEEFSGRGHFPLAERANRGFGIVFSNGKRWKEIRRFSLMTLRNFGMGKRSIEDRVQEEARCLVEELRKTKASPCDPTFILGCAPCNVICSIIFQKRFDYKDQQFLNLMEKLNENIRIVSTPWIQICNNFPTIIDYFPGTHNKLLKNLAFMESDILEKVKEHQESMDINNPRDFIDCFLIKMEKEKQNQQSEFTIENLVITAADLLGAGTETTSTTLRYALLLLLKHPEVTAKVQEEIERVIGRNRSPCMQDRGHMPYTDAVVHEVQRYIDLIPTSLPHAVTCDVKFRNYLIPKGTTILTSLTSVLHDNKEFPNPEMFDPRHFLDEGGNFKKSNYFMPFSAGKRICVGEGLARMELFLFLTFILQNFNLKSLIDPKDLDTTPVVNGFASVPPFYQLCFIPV
SPase activity in M. tuberculosis H37Rv cell membrane fractions, sequence (P9WKA1 whole entry): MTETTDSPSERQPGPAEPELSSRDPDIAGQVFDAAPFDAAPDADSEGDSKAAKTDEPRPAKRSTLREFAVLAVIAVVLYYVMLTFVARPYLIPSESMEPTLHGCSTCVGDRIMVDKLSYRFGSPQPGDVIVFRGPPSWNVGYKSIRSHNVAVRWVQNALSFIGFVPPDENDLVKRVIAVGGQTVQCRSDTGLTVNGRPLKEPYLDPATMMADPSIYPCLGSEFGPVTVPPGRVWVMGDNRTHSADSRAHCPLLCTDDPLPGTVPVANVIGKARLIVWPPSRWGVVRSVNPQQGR

Structure (SMILES) | MIC [1] [µM] | MIC Wild type [1] [µM] | MIC LepB-UE [2] [µM] | MIC [2] [µM] | IC50 ([3]; Homo sapiens, HepG2, 72 h) [µM] | Papp A→B at 2 h, 10 µM [4] [×10⁻⁶ cm/s] | Papp B→A at 2 h, 10 µM [4] [×10⁻⁶ cm/s] | efflux ratio at 2 h, 10 µM [4] | dQ/dt (rate of permeation), mean ([5]; A→B, assay duration 1 hr) | dQ/dt (rate of permeation), mean ([5]; A→B, assay duration 2 hr) | dQ/dt (rate of permeation), mean ([5]; B→A, assay duration 1 hr) | dQ/dt (rate of permeation), mean ([5]; B→A, assay duration 2 hr) | half-life at 1 µM [6] [min] | microsomal CLint at 1 µM [6] [µL/min/mg] | IC50 [8] [µM] | IC50 [9] [µM] | IC50 [10] [µM] | IC50 [11] [µM] | IC50 [12] [µM] | IC50 at 10 min ([13]; pH 7.4, probe midazolam) [µM] | also measured
CCCCNC(=S)Nc1nc2ccccc2o1 [Molecule 12, 1-(benzo[d]oxazol-2-yl)-3-butylthiourea] | 23 to 32 (≈ 5.73 to 7.98 µg/mL) | 23 ± 9.0 (≈ 5.73 µg/mL) | 32 ± 11 (≈ 7.98 µg/mL) | 23 to 32 (≈ 5.73 to 7.98 µg/mL) | 21 ± 19 | 4.9 | 5.8 | 1.2 | 3.4E-05 | 3.2E-05 | 2.7E-05 | 3.0E-05 | 11 | 218 | > 20 | 12.7 | > 20 | > 20 | > 20 | > 20 | IC50 [7]: > 200 µM; IC50 at 10 min ([13]; pH 7.4, probe testosterone): > 20 µM; recovery at 4 h, 5 µM [14]: 80.1%; fraction unbound at 4 h, 5 µM ([14]; Mean plasma fraction Bound): 0.002; fraction unbound at 4 h, 5 µM [14, 19]: 0.002
CCCCNC(=S)Nc1nccs1 [Molecule 14, 1-butyl-3-(thiazol-2-yl)thiourea] | 34 (≈ 7.32 µg/mL) | 34 ± 3.0 (≈ 7.32 µg/mL) | 41 ± 0.1 (≈ 8.83 µg/mL) | 41 (≈ 8.83 µg/mL) | 75 ± 26 | 22 | 18 | 0.81 | 2.6E-04 | 1.5E-04 | 2.3E-04 | 1.6E-04 | 26 | 89 | > 20 | 13.5 | > 20 | 13.2 | > 20 | > 20 | recovery at 1 h, 10 μM ([4]; Caco-2, recovery): 57%; recovery at 2 h, 10 μM ([4]; Caco-2, recovery): 59%; recovery ([5]; Caco-2, 1 h): 72%; recovery ([5]; Caco-2, 2 h): 65%; IC50 [7]: > 200 µM; IC50 at 10 min ([13]; pH 7.4, probe testosterone): > 20 µM; recovery at 4 h, 5 µM [14]: 83.8%; fraction unbound at 4 h, 5 µM ([14]; Mean plasma fraction Bound): 0.01; fraction unbound at 4 h, 5 µM [14, 19]: 0.0098
COCCCNC(=S)Nc1nc2ccccc2s1 [Molecule 24, 1-(benzo[d]thiazol-2-yl)-3-(3-methoxypropyl)thiourea] | 65 ± 21 (≈ 18.3 µg/mL) |  |  | 58 ± 1 (≈ 16.3 µg/mL) | 65 ± 60 | 17 | 15 | 0.87 | 1.1E-04 | 8.8E-05 | 8.0E-05 | 1.1E-04 | 8.2 | 282 | > 20 | > 20 | > 20 | > 20 | > 20 | > 20 | recovery at 2 h, 10 μM ([4]; Caco-2, recovery): 54%; IC50 at 10 min ([13]; pH 7.4, probe testosterone): > 20 µM; recovery at 4 h, 5 µM [14]: 76.5%; fraction unbound at 4 h, 5 µM ([14]; Mean plasma fraction Bound): 0.055; fraction unbound at 4 h, 5 µM [14, 19]: 0.055
Cc1coc(NC(=S)NCC(C)C)n1 [Molecule 29, 1-isobutyl-3-(4-methyloxazol-2-yl)thiourea] | 20 to 40 (≈ 4.27 to 8.53 µg/mL) | 20 ± 23 (≈ 4.27 µg/mL) | 12 ± 1.0 (≈ 2.56 µg/mL) | 12 to 21 (≈ 2.56 to 4.48 µg/mL) | 27 to 78 |  |  |  |  |  |  |  |  |  |  |  |  |  |  |  | IC50 [3]: 27 ± 6 µM; IC50 [15]: 8.1 ± 1.6 µM; concentration giving sterilization of nonreplicating organisms [16]: 100 µM; concentration with bactericidal activity (defined as 3 log kill) [17]: 27.5 μM
CCCNC(=S)Nc1nc2c(Cl)cccc2s1 [Molecule 31, 1-(4-chlorobenzo[d]thiazol-2-yl)-3-propyl thiourea] | > 100 |  | 14 ± 2.0 (≈ 4 µg/mL) | 14 (≈ 4 µg/mL) | > 100 |  |  |  |  |  |  |  |  |  |  |  |  |  |  |  | IC50 [18]: 11 ± 2.2 µM; IC50 [15]: > 100 µM
